System: Escherichia coli strain ATCC25922
Assay: standard microdilution assay to determine minimum inhibitory concentrations (MICs)
Type: cell-based
Settings: Escherichia coli strain ATCC25922, microdilution
Outline: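 Broth microdilution per CLSI (M7-A8/M100-S20), 100 μl final volume, with reference-strain quality control; MIC is the lowest inhibitory concentration. Scored "+"/"−" against a 16 micrograms/ml cutoff, "N/A" where unavailable.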

Row | SMILES | E. coli ATCC25922 MIC
1 | N=C(N)NCCCCc1cc(F)c(Cl)c(-c2cc3cn(-c4ccc(CNCCCNC(=N)N)cc4)c(=O)nc3[nH]2)c1 [Compound 38] | + (a “+” indicates that the compound has an MIC value of 16 micrograms/ml or less)
2 | CNC(C)CCCc1cc(SC(F)(F)F)cc(-c2cc3cn(-c4ccc(CNCCCNC(=N)N)cc4)c(=O)nc3[nH]2)c1 (stereo not drawn) [Compound 294] | + (a “+” indicates that the compound has an MIC value of 16 micrograms/ml or less)
3 | N=C(N)NCCCNCc1ccc(-n2cc3cc(-c4cc(CCCCN)cc([S+]([O-])C(F)(F)F)c4Cl)[nH]c3nc2=O)cc1 (stereo not drawn) [Compound 220] | + (a “+” indicates that the compound has an MIC value of 16 micrograms/ml or less)
4 | N=C(N)NCCCNCc1ccc(-n2cc3cc(-c4cc(CCC5(CN)CCC5)cc(Cl)c4F)[nH]c3nc2=O)cc1 [Compound 253] | + (a “+” indicates that the compound has an MIC value of 16 micrograms/ml or less)
5 | COc1cc(CCCCN)cc(-c2cc3cn(-c4ccc(CNCCCNC(=N)N)cc4)c(=O)nc3[nH]2)c1C(F)(F)F [Compound 265] | + (a “+” indicates that the compound has an MIC value of 16 micrograms/ml or less)
6 | CS(=O)(=O)CCc1cc(CCCCN)cc(-c2cc3cn(-c4ccc(CNCCCNC(=N)N)cc4)c(=O)nc3[nH]2)c1 [Compound 22] | + (a “+” indicates that the compound has an MIC value of 16 micrograms/ml or less)
7 | Cc1c(-c2cc3cn(-c4ccc(CNCCCNC(=N)N)cc4)c(=O)nc3[nH]2)cc(CCCCN)cc1C(F)(F)F [Compound 212] | + (a “+” indicates that the compound has an MIC value of 16 micrograms/ml or less)
8 | C[C@H](NCCCNC(=N)N)c1ccc(-n2cc3cc(-c4cc(CCC5COCC5N)cc(OC(F)(F)F)c4)[nH]c3nc2=O)cc1 (stereo partly drawn) [Compound 477] | + (a “+” indicates that the compound has an MIC value of 16 micrograms/ml or less)
9 | COCCNC[C@@H]1C[C@@H](NC(=O)Nc2nc(=O)c(-c3ccc(CNCCCNC(=N)N)cc3)c[nH]2)CN1C[C@@H](C)CN [Compound 152] | + (a “+” indicates that the compound has an MIC value of 16 micrograms/ml or less)
10 | N=C(N)NCCCNCc1ccc(-n2cc3cc(-c4cc(CCCCN)ccc4OC(F)(F)F)[nH]c3nc2=O)cc1 [Compound 50] | + (a “+” indicates that the compound has an MIC value of 16 micrograms/ml or less)
11 | N=C(N)NCCCNCc1ccc(-n2cc3cc(-c4cc(CCC5COCC5N)cc(OC(F)(F)F)c4)[nH]c3nc2=O)cc1 (stereo not drawn) [Compound 476] | + (a “+” indicates that the compound has an MIC value of 16 micrograms/ml or less)
12 | C[C@H](NCCCNC(=N)N)c1ccc(-n2cc3cc(-c4cc(CCCCN)cc(SC(F)(F)F)c4)[nH]c3nc2=O)cc1 [Compound 69] | + (a “+” indicates that the compound has an MIC value of 16 micrograms/ml or less)
13 | C[C@H](N)CCCc1cc(SC(F)(F)F)cc(-c2cc3cn(-c4ccc(CNCCCNC(=N)N)cc4)c(=O)nc3[nH]2)c1 [Compound 235] | + (a “+” indicates that the compound has an MIC value of 16 micrograms/ml or less)
14 | COCc1cc(CCCCN)cc(-c2cc3cn(-c4ccc(CNCCCNC(=N)N)cc4)c(=O)nc3[nH]2)c1 [Compound 3] | + (a “+” indicates that the compound has an MIC value of 16 micrograms/ml or less)
15 | CC(CN)Cc1cc(OC(F)(F)F)cc(-c2cc3cn(-c4ccc(CNCCCNC(=N)N)cc4)c(=O)nc3[nH]2)c1 (stereo not drawn) [Compound 241] | + (a “+” indicates that the compound has an MIC value of 16 micrograms/ml or less)
16 | CC(C)(CNCc1ccc(-n2cc3cc(-c4cc(CCCCN)cc(OC(F)(F)F)c4)[nH]c3nc2=O)cc1)CNC(=N)N [Compound 31] | + (a “+” indicates that the compound has an MIC value of 16 micrograms/ml or less)

Row | SMILES | E. coli ATCC25922 MIC
17 | NCCCCc1cc(-c2cc3cn(-c4ccc(CNCCCN=C(N)N)c(F)c4)c(=O)nc3[nH]2)cc(C(F)(F)F)c1 [Compound 80] | + (a “+” indicates that the compound has an MIC value of 16 micrograms/ml or less)
18 | C[C@@H](CCCc1cc(SC(F)(F)F)cc(-c2cc3cn(-c4ccc(CNCCCNC(=N)N)cc4)c(=O)nc3[nH]2)c1)N(C)C [Compound 302] | + (a “+” indicates that the compound has an MIC value of 16 micrograms/ml or less)
19 | N=C(N)NCCCNCc1ccc(-n2cc3cc(-c4cc(CCCCN)cc(CN)c4C(F)(F)F)[nH]c3nc2=O)cc1 [Compound 250] | + (a “+” indicates that the compound has an MIC value of 16 micrograms/ml or less)
20 | CC(CN)Cc1cc(-c2cc3cn(-c4ccc(CNCCCNC(=N)N)cc4)c(=O)nc3[nH]2)c(F)c(C(F)(F)F)c1 (stereo not drawn) [Compound 280] | + (a “+” indicates that the compound has an MIC value of 16 micrograms/ml or less)
21 | Cc1cc(CCCCN)cc(-c2cc3cn(-c4ccc(CNCCCN=C(N)N)cc4)c(=O)nc3[nH]2)c1Cl [Compound 63] | + (a “+” indicates that the compound has an MIC value of 16 micrograms/ml or less)
22 | N=C(N)NCCCNCc1ccc(-n2cc3cc(-c4cc(OC(F)(F)F)cc(C(O)CCCN)c4)[nH]c3nc2=O)cc1 (stereo not drawn) [Compound 42] | + (a “+” indicates that the compound has an MIC value of 16 micrograms/ml or less)
23 | N=C(N)NCCCNCc1ccc(-n2cc3cc(-c4cc(Cl)c(F)c(CCCCN)c4)[nH]c3nc2=O)cc1 [Compound 267] | + (a “+” indicates that the compound has an MIC value of 16 micrograms/ml or less)
24 | N=C(N)NCCCNCc1ccc(-n2cc3cc(-c4cc(CS(=O)(=O)CCN)cc(OC(F)(F)F)c4)[nH]c3nc2=O)cc1 [Compound 16] | + (a “+” indicates that the compound has an MIC value of 16 micrograms/ml or less)
25 | CC(C)c1cc(CCC2(CN)CCC2)cc(-c2cc3cn(-c4ccc(CNCCCNC(=N)N)cc4)c(=O)nc3[nH]2)c1 [Compound 103] | + (a “+” indicates that the compound has an MIC value of 16 micrograms/ml or less)
26 | C[S+]([O-])c1cc(CCCCN)cc(-c2cc3cn(-c4ccc(CNCCCNC(=N)N)cc4)c(=O)nc3[nH]2)c1 (stereo not drawn) [Compound 32] | + (a “+” indicates that the compound has an MIC value of 16 micrograms/ml or less)
27 | CS(=O)(=O)Nc1cc(CCCCN)cc(-c2cc3cn(-c4ccc(CNCCCNC(=N)N)cc4)c(=O)nc3[nH]2)c1 [Compound 48] | + (a “+” indicates that the compound has an MIC value of 16 micrograms/ml or less)
28 | N=C(N)NCCCNCc1ccc(-n2cc3cc(-c4cc(OC(F)(F)F)cc(C(F)CCCN)c4)[nH]c3nc2=O)cc1 (stereo not drawn) [Compound 58] | + (a “+” indicates that the compound has an MIC value of 16 micrograms/ml or less)
29 | N#Cc1cc(-c2cc3cn(-c4ccc(CNCCCNC(=N)N)cc4)c(=O)nc3[nH]2)cc(CCCCN)c1Cl [Compound 118] | + (a “+” indicates that the compound has an MIC value of 16 micrograms/ml or less)
30 | CS(=O)(=O)c1cc(CCCCN)cc(-c2cc3cn(-c4ccc(CNCCCNC(=N)N)cc4)c(=O)nc3[nH]2)c1 [Compound 33] | + (a “+” indicates that the compound has an MIC value of 16 micrograms/ml or less)
31 | CC(C)c1cc(CCCCN)cc(-c2cc3cn(-c4ccc(CNCCCNC(=N)N)cc4)c(=O)nc3[nH]2)c1 [Compound 46] | + (a “+” indicates that the compound has an MIC value of 16 micrograms/ml or less)
32 | C[C@H](N)CCCc1cc(-c2cc3cn(-c4ccc([C@H](C)NCCCNC(=N)N)cc4)c(=O)nc3[nH]2)cc(C(F)(F)F)c1 [Compound 236] | + (a “+” indicates that the compound has an MIC value of 16 micrograms/ml or less)

Same assay, conditions: Escherichia coli strain ATCC25922, standard microdilution assay

Row | SMILES | E. coli ATCC25922 MIC
33 | CCC(N)CCCc1cc(SC(F)(F)F)cc(-c2cc3cn(-c4ccc(CNCCCNC(=N)N)cc4)c(=O)nc3[nH]2)c1 (stereo not drawn) [Compound 380] | + (a “+” indicates that the compound has an MIC value of 16 micrograms/ml or less)
34 | N=C(N)NCCCNCc1ccc(-n2cc3cc(-c4cc(COC5COCC5N)cc(OC(F)(F)F)c4)[nH]c3nc2=O)cc1 (stereo not drawn) [Compound 459] | + (a “+” indicates that the compound has an MIC value of 16 micrograms/ml or less)
35 | CCN=C(N)NCCCNC(C)c1ccc(-n2cc3cc(-c4cc(CCCC(C)N)cc(Cl)c4F)[nH]c3nc2=O)cc1 (stereo not drawn) [Compound 362] | + (a “+” indicates that the compound has an MIC value of 16 micrograms/ml or less)
36 | CC(NCCCNC(=N)N)c1ccc(-n2cc3cc(-c4cc(CC5CCC(N)C5)cc(Cl)c4F)[nH]c3nc2=O)cc1 (mixture of isomers) [Compound 421] | + (a “+” indicates that the compound has an MIC value of 16 micrograms/ml or less)
37 | Cc1c(-c2cc3cn(-c4ccc(CNCCCNC(=N)N)cc4)c(=O)nc3[nH]2)cc(CCC[C@H](C)N)cc1C(C)C [Compound 446] | + (a “+” indicates that the compound has an MIC value of 16 micrograms/ml or less)
38 | C[C@H](N)CCCc1cc2c(c(-c3cc4cn(-c5ccc(CNCCCNC(=N)N)cc5)c(=O)nc4[nH]3)c1)COC2 [Compound 442] | + (a “+” indicates that the compound has an MIC value of 16 micrograms/ml or less)
39 | CC(CN)SCc1cc(SC(F)(F)F)cc(-c2cc3cn(-c4ccc(CNCCCNC(=N)N)cc4)c(=O)nc3[nH]2)c1 (stereo not drawn) [Compound 336] | + (a “+” indicates that the compound has an MIC value of 16 micrograms/ml or less)
40 | CC(NCCCNC(=N)N)c1ccc(-n2cc3cc(-c4cc(C5CCC(N)CC5)cc(C(F)(F)F)c4)[nH]c3nc2=O)cc1 (mixture of isomers) [Compound 426] | + (a “+” indicates that the compound has an MIC value of 16 micrograms/ml or less)
41 | COC[C@H](N)CCCc1cc(SC(F)(F)F)cc(-c2cc3cn(-c4ccc(CNCCCNC(=N)N)cc4)c(=O)nc3[nH]2)c1 [Compound 424] | + (a “+” indicates that the compound has an MIC value of 16 micrograms/ml or less)
42 | C[C@H](N)CCCc1cc(C(F)(F)F)cc(-c2cc3cn(-c4ccc(CNCCCNC(=N)N)cc4)c(=O)nc3[nH]2)n1 [Compound 389] | + (a “+” indicates that the compound has an MIC value of 16 micrograms/ml or less)

Source: patent US9221827B2, “Antimicrobial compounds and methods of making and using the same” (Melinta Therapeutics, Inc., priority 2011, dated 2015)
